Several values for one entry are separate records, joined by “and”; a condition that tells them apart may be missing. Equal entries are not always repeated. Structures can show the parent of a compound that is named as a salt. Where two headings read alike, the source gives them in different places.
Experiments:
[1] = test system: line A549 (lung); test: Cytotoxic activity: inhibition of cell proliferation, ATPLite luminescence of residual ATP after 72 hours; type: cell-based, human; details: A549 lung tumoral line, 72 hours of incubation
Procedure: (§1) The cytotoxic activity of the compounds prepared according to the invention was evaluated by measuring inhibition of the cell proliferation of tumoral lines of human origin, such as line A549 (lung) and line HCT 116 (colon). This activity is expressed by IC50, concentration of the tested product capable of inhibiting 50% of cell proliferation. The method used is luminescence measurement of the residual ATP after 72 hours of incubation using the “ATPLite®” kit marketed by Perkin Elmer, as described in the following publication: “Measurement of cytotoxicity by ATP-based luminescence assay in primary cell cultures and cell lines”. I. A. Cree, P. E. Andreotti, Toxicology in Vitro, 11, 553-6, (1997).
(§2) The concentration values are expressed in nanomolar (nM).

[2] = test system: line HCT 116 (colon); test: as above; type: cell-based, human; details: HCT 116 colon tumoral line, 72 hours of incubation, read-out: IC50 (nM) HCT116
Procedure: as §1, §2

[3] = Solubility measurement in buffer D-PBS 1X (pH = 7.2); details: for solubility: pH 7.2, aqueous buffer
Excerpt: The solvent used is constituted by a buffered solution at pH=7.2 “Dulbecco's Phosphate Buffered Saline” (D-PBS 1X), marketed by Gibco (reference 14190).

Structure (SMILES)	IC50 ([1]; Homo sapiens) [nM]	IC50 ([2]; Homo sapiens) [nM]	also measured
[N-]=[N+]=N[C@H]1[C@H](O)[C@@H](O)[C@@H](O)[C@@H]2NC(=O)c3c(cc4c(c3O)OCO4)[C@@H]12 [Compound 5, (1R,2S,3S,4S,4aR,11bR)-1-azido-2,3,4,7-tetrahydroxy-1,2,3,4,4a,5-hexahydro-[1,3]dioxolo[4,5-j]phenanthridin-6(11bH)-one]	68	36	
N[C@H]1[C@H](O)[C@@H](O)[C@@H](O)[C@@H]2NC(=O)c3c(cc4c(c3O)OCO4)[C@@H]12 [Compound 6, (1R,2S,3R,4S,4aR,11bS)-1-amino-2,3,4,7-tetrahydroxy-1,2,3,4,4a,5-hexahydro-[1,3]dioxolo[4,5-j]phenanthridin-6(11bH)-one]	60	35	Solubility Buffer D-PBS 1X (pH = 7.2), mass by volume unit ([3]; D-PBS 1X, pH = 7.2): 508 μg/mL; Solubility Buffer D-PBS 1X (pH = 7.2), molarity ([3]; D-PBS 1X, pH = 7.2): 1340 μM
CC(C)(C)OC(=O)N[C@H]1[C@H](O)[C@@H](O)[C@@H](O)[C@@H]2NC(=O)c3c(cc4c(c3O)OCO4)[C@@H]12 [Compound 10, tert-butyl(1R,2S,3S,4S,4aR,11bR)-2,3,4,7-tetrahydroxy-6-oxo-1,2,3,4,4a,5,6,11b-octahydro-[1,3]dioxolo[4,5-j]phenanthridin-1-ylcarbamate]	270	32	
O=C1N[C@H]2[C@H](O)[C@H](O)[C@@H](O)[C@H](NCc3ccccc3)[C@@H]2c2cc3c(c(O)c21)OCO3 [Compound 14, (1R,2S,3R,4S,4aR,11bS)-1-(benzylamino)-2,3,4,7-tetrahydroxy-1,2,3,4,4a,5-hexahydro-[1,3]dioxolo[4,5-j]phenanthridin-6(11bH)-one]	22	12	
CN(C)[C@H]1[C@H](O)[C@@H](O)[C@@H](O)[C@@H]2NC(=O)c3c(cc4c(c3O)OCO4)[C@H]21 [Compound 16, (1R,2S,3S,4S,4aR,11bR)-1-(dimethylamino)-2,3,4,7-tetrahydroxy-1,2,3,4,4a,5-hexahydro-[1,3]dioxolo[4,5-j]phenanthridin-6(11bH)-one]	150	81	
O=C1N[C@H]2[C@H](O)[C@H](O)[C@@H](O)[C@H](NC(=O)C3CCCCC3)[C@@H]2c2cc3c(c(O)c21)OCO3 [Compound 21, N-((1R,2S,3R,4S,4aR,11bS)-2,3,4,7-tetrahydroxy-6-oxo-1,2,3,4,4a,5,6,11b-octahydro-[1,3]dioxolo[4,5-j]phenanthridin-1-yl)cyclohexanecarboxamide]	46	13	
O=C(N[C@H]1[C@H](O)[C@@H](O)[C@@H](O)[C@@H]2NC(=O)c3c(cc4c(c3O)OCO4)[C@@H]12)c1ccccc1 [Compound 22, N-((1R,2S,3R,4S,4aR,11bS)-2,3,4,7-tetrahydroxy-6-oxo-1,2,3,4,4a,5,6,11b-octahydro-[1,3]dioxolo[4,5-j]phenanthridin-1-yl)benzamide]	8.7	4.7	solubility ([3]; Solubility Buffer D-PBS 1X (pH = 7.2), mass by volume unit, D-PBS 1X, pH = 7.2): 393 µg/mL; solubility ([3]; Solubility Buffer D-PBS 1X (pH = 7.2), molarity, D-PBS 1X, pH = 7.2): 867 µM
CN(C)Cc1cccc(C(=O)N[C@H]2[C@H](O)[C@@H](O)[C@@H](O)[C@@H]3NC(=O)c4c(cc5c(c4O)OCO5)[C@@H]23)c1 [Compound 28, 3-((dimethylamino)methyl)-N-((1R,2S,3R,4S,4aR,11bS)-2,3,4,7-tetrahydroxy-6-oxo-1,2,3,4,4a,5,6,11b-octahydro-[1,3]dioxolo[4,5-j]phenanthridin-1-yl)benzamide]	110	130	
N[C@H]1[C@H](O)[C@@H](O)[C@@H](O)[C@@H]2NC(=O)c3c(cc4c(c3O)OCO4)[C@@H]12 [Hydrochloride of Compound 6, (1R,2S,3R,4S,4aR,11bS)-1-amino-2,3,4,7-tetrahydroxy-1,2,3,4,4a,5-hexahydro-[1,3]dioxolo[4,5-j]phenanthridin-6(11bH)-one]			Solubility Buffer D-PBS 1X (pH = 7.2), molarity ([3]; D-PBS 1X, pH = 7.2): 3870 μM; Solubility Buffer D-PBS 1X (pH = 7.2), mass by volume unit ([3]; D-PBS 1X, pH = 7.2, listed as compound 6 isolated in the hydrochloride form): 1250 μg/mL
O=C1N[C@@H]2C(=C[C@H](O)[C@@H](O)[C@H]2O)c2cc3c(c(O)c21)OCO3 [Narciclasine 1, Narciclasine, reference compound]			IC50 [1]: 49 nM; IC50 [2]: 22 nM; solubility [3]: 401 µM and 131 µg/mL

Reference: US8697064B2, “Nitrogenated derivatives of pancratistatin” (Pierre Fabre Medicament, priority 2008, dated 2014)
